# Assay results taken from patent US20040009904A1, “APL immunoreactive peptides, conjugates thereof and methods of treatment for aPL antibody-mediated pathologies” (priority 1995, published 2004).
# Numbered stars: 1 amine (or outer) side, 2 acyl side, 3 side chain; on linkers, the order of the positions; unused ones are H or OH. Bridge positions count the residues as written; N and C are the ends. Square brackets hold non-standard residues; d marks the D form. Peptide text beside a SMILES is read from it. Abu(4-yl) = O=C([C@H](CC[*:3])N[*:1])[*:2]
# How the values were obtained:
# ACA = assay: Structure Activity Relationship of the Crossreactive ACA Epitope (relative activity); type: binding, human; details: LJP 688 = 100
# Text: Peptide 6641/3G3 (LJP 688) was subjected to a number of analyses. The analyses included truncation at both the N-terminus and the C-terminus, disulfide substitution, substitution of alanine and glycine for amino acids in positions 2 through 8, substitution of branched aliphatic amino acids in positions 2, 4, 5 and 8, substitution of amino acids affecting conformation of the peptide, including substitution of α-methyl amino acids, substitution of basic amino acids in position 7, substitution of D-amino acids in positions 2 through 9, and the substitution of N-α-methyl amino acids in positions 1 through 9.
# ACA-6501 [1] = assay: Competitive binding peptide ACA ELISA, cardiolipin/β2-GPI-coated plates; design: species or system human; details: for with ACA 6501 150 ug/mL: Optimization of Peptide 3G3, inf = no 50% inhibition; for IC50 Values, ACA-6501: cyclic thioether analogs; for Percent Inhibition of AffACA by Peptide Monomers, 6501: affinity purified antibody
# Summary of the method: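 Monomeric peptides at several amounts were preincubated ~1 h at RT with ACA-6501 serum (final 1:400), then added to cardiolipin-coated, fish-gelatin-blocked plates with β2-GPI for 1 h at RT. Bound IgG was detected with alkaline phosphatase anti-human IgG and phenolphthalein monophosphate, read at 550 nm. IC50 was the peptide amount at half-maximal absorbance.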
# ACA-6701 = assay: as above; design: species or system human; details: for IC50 Values, ACA-6701: cyclic thioether analogs; for Percent Inhibition of AffACA by Peptide Monomers, 6701: affinity purified antibody
# Protocol: (§1) A variation of this assay uses microtitration plates coated with human β2-glycoprotein I/cardiolipin (β2-GPI/CL) instead of tetravalent peptide and tests the ability of monomeric peptides to block the binding of aPL antibody to the epitope(s) on β2-GPI/CL. In this assay, IgG-depleted human serum at an optimized concentration is used as a source of β2-GPI. The monomeric peptides at several concentrations are incubated with an optimized concentration of aPL antibody in a manner analogous to the assay which employs tetravalent peptide as a plate substrate. Following the incubation of aPL/peptide in (β2-GPI/CL) plates, antibody binding and the peptide concentration required for 50% inhibition is determined at half-maximal absorbance as in the tetravalent assay.
# (§2) Peptide sequences for all five peptides immediately follow the table. All were tested using the competitive binding peptide ACA ELISA using CL/β2-GPI plates as described herein.
# (§3) (B) Immulon I® 96-well, flat-bottom, polystyrene microtitration plates (Dynatech Laboratories, Inc., Chantilly, Va.) were coated with 30 μL/well of cardiolipin (CL, 50 μg; Sigma Chemical Co., St. Louis, Mo.) in ethanol. Two control wells received 30 μL ethanol only. After overnight evaporation at 4° C., each well was blocked with 200 μL of 5% (w/v) fish gelatin in PBS for 2 hours at RT.
# (§4) The CL/β2-GPI microtitration plate was washed 5 times with TBS and 100 μL aliquots in duplicate from Eppendorf tubes #1, 2, 3, and 4 containing the antibody-peptide (or no peptide mixtures) were added to the wells. A volume of 100 μL from tube #4 was added to the duplicate control wells containing no cardiolipin. The microtitration plate was incubated for 1 hour at RT with agitation at 40 rpm in an orbital shaker (American Scientific, Rotator V), washed 5 times with TBS and then 100 μL of 1:1000 goat anti-human IgG alkaline phosphatase conjugate (Zymed, Cat No. 62-8422) in 0.5% (w/v) BSA-TBS was added. Following incubation for 1 hour at RT, the microtitration plate was again washed 5 times with TBS and the colorimetric enzyme detection developed by adding 100 μL of PMPP solution (7.8 g phenolphthalein monophosphate plus 69.5 g of 2-amino-2-methyl-1-propanol in 100 mL water stock solution diluted 1:26 with water). After 21 minutes, the reaction was stopped by adding 50 μL of 0.2 M Na2HPO4 (Mallinckrodt) to each well. Absorbance at 550 nm was read in a microplate reader (Bio-Tek Instruments, Model EL 311). The amount of peptide that inhibited ACA-6501 binding by 50%, the IC50, was calculated from the graph at the intersection of half-maximal absorbance with amount of peptide added.
# ACA antibodies = assay: Competitive binding peptide ACA ELISA, cardiolipin/β2-GPI-coated plates, panel of ACA antibodies (average); design: species or system human; details: average over nine antibodies
# Protocol: as §1, §2
# As noted in Section I above, one synthetic peptide, 6641/3G3 was tested against several high titer ACA antisera. This peptide appeared to be crossreactive with the vast majority of ACA antisera tested as illustrated in FIG. 14.
# as §3, §4
# ACA-7005 = assay: Competitive binding peptide ACA ELISA, cardiolipin/β2-GPI-coated plates; design: species or system human; details: affinity purified antibody
# Protocol: as §1, §2, §3, §4
# ACA-6644 = assay: as above; design: species or system human; details: affinity purified antibody
# Protocol: as §1, §2, §3, §4
# ACA-6626 = assay: as above; design: species or system human; details: affinity purified antibody
# Protocol: as §1, §2, §3, §4
# ACA-6641 = assay: as above; design: species or system human; details: affinity purified antibody
# Protocol: as §1, §2, §3, §4
# ACA-7004 = assay: as above; design: species or system human; details: affinity purified antibody
# Protocol: as §1, §2, §3, §4
# ACA-6903 = assay: as above; design: species or system human; details: affinity purified antibody
# Protocol: as §1, §2, §3, §4
# ACA-6638 = assay: as above; design: species or system human; details: affinity purified antibody
# Protocol: as §1, §2, §3, §4
# ACA-6501 [2] = assay: Phage-ELISA; type: binding, human; details: phage clones coated on wells, affACA-6501 2.5 μg/mL
# Protocol: This method of selecting phage requires very tight binding of the insert to the screening antibody. Phage are directly coated onto wells of a microtitration plate and incubated with the screening antibody. Following washes to remove unbound antibody, an anti-human IgG alkaline phosphatase conjugate is added to bind any aPL antibodies bound to the phage. APL antibodies are then detected by adding a calorimetric substrate to the well which will react with alkaline phosphatase according to methods well known in the art.
# Three mL cultures were prepared from 35 clones previously isolated with affinity purified ACA-6501 in several phage library screens as well as one fUSE 2 phage clone lacking a peptide insert which was used as a control. After centrifugation for 3 minutes at 17,000×g, 100 μL from each phage supernatant (adjusted to −2×10^11 particles/mL, based on absorbance) was added to microtitration plate wells (Falcon, Becton-Dickinson Labware, Lincoln Park, N.Y.) and allowed to incubate overnight at 4° C. Following four washes with TBS 7.4, the plate was blocked with 125 μL of 0.5% BSA/TBS for 1 hour at RT. After another four TBS washes, 100 μL of affACA-6501 previously diluted to 2.5 μg/mL in TBS/BSA was added to each well and allowed to incubate 1 hour at 37° C. Following an additional four washes, 100 μL anti-human IgG diluted 1:1000 in TBS/0.5% Tween was added to each well. After 1 hour at RT, enzyme substrate was added and the incubation allowed to proceed for 2 hours. Following the addition of 50 μL 0.2 M Na2HPO4 to stop the reaction, absorbance was measured at 550 nm in the automated plate absorbance reader. […] The sequences for these clones are showvn in Table 2.
compound,measurement,setting,value
CC(C)C[C@@H]1NC(=O)[C@H](CCCCN)NC(=O)CNC(=O)[C@@H](CC(C)C)NC(=O)[C@@H](C(C)C)NC(=O)CNC(=O)[C@H](CC(C)C)NC(=O)[C@@H](N)CSSC[C@@H](C(=O)O)NC1=O [C L G dV dL G K L C] (H-CLG[dV][dL]GKLC-OH; disulfide 1-9),Relative Activity,ACA,5.9
same,with ACA 6501 150 ug/mL,ACA-6501 [1],50 µg/mL
"CC(C)C[C@@H]1NC(=O)[C@H](CCCCN)NC(=O)CNC(=O)[C@H](CC(C)C)NC(=O)[C@H](C(C)C)NC(=O)CNC(=O)[C@H](CC(C)C)NC(=O)[C@@H](N)CSSC[C@@H](C(=O)O)NC1=O [LJP 690, CLGVLGKLC] (H-CLGVLGKLC-OH; disulfide 1-9)",Relative Activity,ACA,3.5
same,"IC50 Values, ACA-6701",ACA-6701,4.0 μg/0.1 mL
same,"IC50 Values, ACA-6501",ACA-6501 [1],10.0 μg/0.1 mL
CC(C)C[C@@H]1NC(=O)[C@H](CCCCN)NC(=O)CNC(=O)[C@H](CC(C)C)NC(=O)[C@H](C(C)C)NC(=O)CNC(=O)[C@H](CC(C)C)NC(=O)[C@@H](N)CCSC[C@@H](C(=O)O)NC1=O [LJP 699] (H-[Abu(4-yl)]LGVLGKLC-OH; thioether 1-9),Relative Activity,ACA,1.6
same,"IC50 Values, ACA-6701",ACA-6701,3.0 μg/0.1 mL
same,with ACA 6501 150 ug/mL,ACA-6501 [1],46 µg/mL
same,"IC50 Values, ACA-6501",ACA-6501 [1],4.6 μg/0.1 mL
"CC(C)C[C@@H]1NC(=O)[C@H](CCCCN)NC(=O)[C@H](C)NC(=O)[C@H](CC(C)C)NC(=O)[C@H](C(C)C)NC(=O)CNC(=O)[C@H](CC(C)C)NC(=O)[C@@H](N)CSSC[C@@H](C(=O)O)NC1=O [peptide 925, CLGVLAKLC] (H-CLGVLAKLC-OH; disulfide 1-9)",Relative Activity,ACA,1.8
same,with ACA 6501 150 ug/mL,ACA-6501 [1],40 µg/mL
AGP DGNIADPRC PG (DGNIADPRCPG) [6626/4C7],"Percent Inhibition of AffACA by Peptide Monomers, Ave.",ACA antibodies; peptide 1 mg/mL,68%
same,"Percent Inhibition of AffACA by Peptide Monomers, 7005",ACA-7005; peptide 1 mg/mL,54%
same,"Percent Inhibition of AffACA by Peptide Monomers, 6644",ACA-6644; peptide 1 mg/mL,45%
same,"Percent Inhibition of AffACA by Peptide Monomers, 6626",ACA-6626; peptide 1 mg/mL,88%
same,"Percent Inhibition of AffACA by Peptide Monomers, 6641",ACA-6641; peptide 1 mg/mL,45%
same,"Percent Inhibition of AffACA by Peptide Monomers, 6701",ACA-6701; peptide 1 mg/mL,69%
same,"Percent Inhibition of AffACA by Peptide Monomers, 7004",ACA-7004; peptide 1 mg/mL,99%
same,"Percent Inhibition of AffACA by Peptide Monomers, 6903",ACA-6903; peptide 1 mg/mL,77%
same,"Percent Inhibition of AffACA by Peptide Monomers, 6638",ACA-6638; peptide 1 mg/mL,96%
same,"Percent Inhibition of AffACA by Peptide Monomers, 6501",ACA-6501 [1]; peptide 1 mg/mL,39%
AGP LSDPGYVRNIFH PG (LSDPGYVRNIFHPG) [6701/3B1],"Percent Inhibition of AffACA by Peptide Monomers, Ave.",ACA antibodies; peptide 1 mg/mL,52%
same,"Percent Inhibition of AffACA by Peptide Monomers, 7005",ACA-7005; peptide 1 mg/mL,23%
same,"Percent Inhibition of AffACA by Peptide Monomers, 6644",ACA-6644; peptide 1 mg/mL,37%
same,"Percent Inhibition of AffACA by Peptide Monomers, 6626",ACA-6626; peptide 1 mg/mL,43%
same,"Percent Inhibition of AffACA by Peptide Monomers, 6641",ACA-6641; peptide 1 mg/mL,43%
same,"Percent Inhibition of AffACA by Peptide Monomers, 6701",ACA-6701; peptide 1 mg/mL,96%
same,"Percent Inhibition of AffACA by Peptide Monomers, 7004",ACA-7004; peptide 1 mg/mL,72%
same,"Percent Inhibition of AffACA by Peptide Monomers, 6903",ACA-6903; peptide 1 mg/mL,51%
same,"Percent Inhibition of AffACA by Peptide Monomers, 6638",ACA-6638; peptide 1 mg/mL,65%
same,"Percent Inhibition of AffACA by Peptide Monomers, 6501",ACA-6501 [1]; peptide 1 mg/mL,41%
"CILLAHDRC [3E7, ACA-6501 phage clone insert]",signal in the phage-ELISA,ACA-6501 [2],significant signals
CLGVAGKLC [C L G V A G K L C],Relative Activity,ACA,∞
same,with ACA 6501 150 ug/mL,ACA-6501 [1],inf
CLGVLGALC [C L G V L G A L C],Relative Activity,ACA,∞
same,with ACA 6501 150 ug/mL,ACA-6501 [1],inf
CLGVLPGKLC,Relative Activity,ACA,1.4
"CLVLALDRC [3B6, ACA-6501 phage clone insert]",signal in the phage-ELISA,ACA-6501 [2],significant signals
"CTILTLDRC [2H2, ACA-6501 phage clone insert]",signal in the phage-ELISA,ACA-6501 [2],significant signals
GILALDYV GG (GILALDYVGG) [6644/CBf],"Percent Inhibition of AffACA by Peptide Monomers, Ave.",ACA antibodies; peptide 200 μg/mL,39%
same,"Percent Inhibition of AffACA by Peptide Monomers, 7005",ACA-7005; peptide 200 μg/mL,57%
same,"Percent Inhibition of AffACA by Peptide Monomers, 6644",ACA-6644; peptide 200 μg/mL,18%
same,"Percent Inhibition of AffACA by Peptide Monomers, 6626",ACA-6626; peptide 200 μg/mL,37%
same,"Percent Inhibition of AffACA by Peptide Monomers, 6641",ACA-6641; peptide 200 μg/mL,28%
same,"Percent Inhibition of AffACA by Peptide Monomers, 6701",ACA-6701; peptide 200 μg/mL,22%
same,"Percent Inhibition of AffACA by Peptide Monomers, 7004",ACA-7004; peptide 200 μg/mL,54%
same,"Percent Inhibition of AffACA by Peptide Monomers, 6903",ACA-6903; peptide 200 μg/mL,43%
same,"Percent Inhibition of AffACA by Peptide Monomers, 6638",ACA-6638; peptide 200 μg/mL,60%
same,"Percent Inhibition of AffACA by Peptide Monomers, 6501",ACA-6501 [1]; peptide 200 μg/mL,37%
"SLGVLGKLS [diserine non-cyclized negative control, reference compound]",Relative Activity,ACA,∞
